Results taken from patent US20240216401A1, “COMBINATION THERAPY BY USING AKR1C3-ACTIVATED COMPOUND WITH IMMUNE CHECKPOINT INHIBITOR” (OBI Pharma, Inc., priority 2021, published 2024).
Several values for one entry are separate records, joined by “and”; a condition that tells them apart may be missing. Equal values may be shown once. Entries after “also recorded” stand apart in the source; their conditions may differ.

How the values were obtained:
Type in all cases: in vivo, Mus musculus
HepG2 tumor = assay: Example 1: tumor volume, tumor weight and TGI in HepG2 tumor bearing humanized mice
Method: (§1) Each group contains five mice. The human hepatocellular carcinoma cell line HepG2 were subcutaneously inoculated to the advanced immune deficiency mice. Total of 30 mice were included in this study.
2.2. […] The subcutaneous injection volume was […].
(§2) 3.1. […] The injection was performed using insulin syringe with the dosage of 10 mg/kg (Dosage of injection was changed to 20 mg/kg from Day 15) and injection volume of 10 mL/kg. […] The reference item was administered for G1. The procedure followed the standards of sample administration.
(§3) 3.2. The test item anti-hPD-L1 antibody or reference items were intraperitoneally injected to the mice on Day 8 after the inoculation of tumor cells. The injection was performed using insulin syringe with the dosage of 10 mg/kg (Dosage of injection was changed to 20 mg/kg from Day 15) and injection volume of 10 mL/kg. The test item anti-hPD-L1 was continuously administered on Day 8, 11, 15, 18, 22, 25, 29 and 32 for G4 and G6. The reference item was administered for G1. The procedure followed the standards of sample administration.
(§4) 3.3. […] The injection was performed using insulin syringe with the dosage of 1 mg/kg and injection volume of 5 mL/kg. […] The reference item was administered for G1. The procedure followed the standards of sample administration.
The measurement was performed from the next day of the inoculation. The tumor volumes were measured and recorded twice a week (Mon., Thur.). Tumor volume was calculated by ellipsoid equation according to the records ((major axis×minor axis×minor axis)×(π/6)).
Tumor volumes were used to calculate tumor growth inhibition (TGI) rates according to the following formula: TGI (%)=[1−(Ti−T0)/(Ci−C0)]×100, where Ti and Ci indicate the mean tumor volume in the treatment groups and vehicle group at the end of the experiment (Day 35). Whereas, T0 and C0 indicate the mean tumor volumes in the treatment group and vehicle group at the beginning of the experiment (Day 1).
(§5) Mice were sacrificed by CO2 euthanasia at the end of the study duration, and the connective tissue around tumor was resected. The tumor samples were then removed and weighed. The half tissue was fixed in 10% formaldehyde and then embedded in paraffin; the other half was prepared for the isolation of tumor-infiltrating lymphocytes (TILs).

[1] = Example 1: body weight and mortality of HepG2 tumor bearing humanized mice; details: OBI-3424 1 mg/kg IV, antibody 10 mg/kg IP (20 from Day 15)
Method: as §1, §2, §3, §4
The measurement was performed from the next day of the inoculation. The animal body weights were measured and recorded twice per week.

[2] = test system: CD8^+ cytotoxic T cells (CTL) in tumor-infiltrating lymphocytes; assay: Example 1: flow cytometry, percentage of CTL cells in TILs
Method: as §5
(§6) The half of mouse tumors were dissected into smaller fragments using scalpels and then digested with a cocktail of collagenase, DNase I, and Hyaluronidase (Collagenase #C5138, DNase I #D5025, Hyaluronidase #H6254, SigmaAldrich) for at least 2 hours.
(§7) Cells were stained with the fluorescently conjugated surface antibodies and incubated for 30 minutes at 4° C., and then resuspended in staining buffer for flow cytometric analysis. Flow cytometry was done using a Navios EX Flow Cytometer (Beckman Coulter). Data were analyzed using the Kaluza Analysis Software (Beckman Coulter).

[3] = test system: CD4^+ T helper cells in tumor-infiltrating lymphocytes; assay: Example 1: flow cytometry, percentage of TH cells in TILs; details: individual mice
Method: as §5, §6, §7

[4] = test system: NK cells in tumor-infiltrating lymphocytes; assay: Example 1: flow cytometry, percentage of NK cells in TILs; details: individual mice
Method: as §5, §6, §7

[5] = test system: PD-L1^+ cells in tumor-infiltrating lymphocytes; assay: Example 1: flow cytometry, percentage of PD-L1 cells in TILs; details: individual animal
Method: as §5, §6, §7

[6] = TILs, flow cytometer, individual mice
[7] = TILs, gate CD45^+CD8^+ cells, individual mice

C[C@H](OP(=O)(N1CC1)N1CC1)c1ccc([N+](=O)[O-])c(Oc2cccc(C(=O)N(C)C)c2)c1 [OBI-3424, (S)-1-(3-(3-N,N-dimethylaminocarbonyl)phenoxyl-4-mtrophenyl)-1-ethyl-N,N′-bis(ethylene)phosphoramidate]
Tumor volume, Mean (HepG2 tumor; D 1, group mean, OBI-3424 1 mg/kg IV, antibody 10 mg/kg IP (20 from Day 15)): 397.08 mm^3
Tumor volume, Mean (HepG2 tumor; D 4, group mean, OBI-3424 1 mg/kg IV, antibody 10 mg/kg IP (20 from Day 15)): 295.20 mm^3
Tumor volume, Mean (HepG2 tumor; D 7, group mean, OBI-3424 1 mg/kg IV, antibody 10 mg/kg IP (20 from Day 15)): 298.28 mm^3
Tumor volume, Mean (HepG2 tumor; D 11, group mean, OBI-3424 1 mg/kg IV, antibody 10 mg/kg IP (20 from Day 15)): 344.17 mm^3
Tumor volume, Mean (HepG2 tumor; D 14, group mean, OBI-3424 1 mg/kg IV, antibody 10 mg/kg IP (20 from Day 15)): 385.09 mm^3
Tumor volume, Mean (HepG2 tumor; D 18, group mean, OBI-3424 1 mg/kg IV, antibody 10 mg/kg IP (20 from Day 15)): 535.36 mm^3
Tumor volume, Mean (HepG2 tumor; D 21, group mean, OBI-3424 1 mg/kg IV, antibody 10 mg/kg IP (20 from Day 15)): 627.45 mm^3
Tumor volume, Mean (HepG2 tumor; D 25, group mean, OBI-3424 1 mg/kg IV, antibody 10 mg/kg IP (20 from Day 15)): 773.19 mm^3
Tumor volume, Mean (HepG2 tumor; D 28, group mean, OBI-3424 1 mg/kg IV, antibody 10 mg/kg IP (20 from Day 15)): 718.91 mm^3
Tumor volume, Mean (HepG2 tumor; D 32, group mean, OBI-3424 1 mg/kg IV, antibody 10 mg/kg IP (20 from Day 15)): 643.09 mm^3
Tumor volume, Mean (HepG2 tumor; D 35, group mean (mean±SEM), OBI-3424 1 mg/kg IV, antibody 10 mg/kg IP (20 from Day 15)): 590.62±164.32 mm^3 and 590.62 mm^3
Tumor weight, Mean (HepG2 tumor; D 35, group mean, OBI-3424 1 mg/kg IV, antibody 10 mg/kg IP (20 from Day 15)): 274.44 mg
mean tumor volume compared with vehicle (in words) (HepG2 tumor; Day 35, vs vehicle (G1), Student's t-test): Significantly reduced; also recorded: significantly suppressed
effect on tumor growth (conclusion in words) (HepG2 tumor; HepG2 humanized mouse model): efficiently anti-tumor effect
TGI (HepG2 tumor; from mean tumor volumes Day 35 vs Day 1, relative to vehicle, OBI-3424 1 mg/kg IV, antibody 10 mg/kg IP (20 from Day 15)): 83.13%
tumor weight compared with vehicle (in words) (HepG2 tumor; sacrifice Day 36, vs vehicle (G1)): significantly suppressed
Body Weight, Mean ([1]; Day 18, group mean): 24.23 g
Body Weight, Mean ([1]; Day 21, group mean): 24.04 g
CD8^+ cytotoxic T cells (CTL) population in tumors compared with vehicle (in words) ([2]; Example 1, TILs at sacrifice, flow cytometry): significantly elevated
CD25^+ CTL cells (CD45^+CD8^+ CD25^+) Total % [2, 6]: 0.27% and 0.30% and 0.77% and 0.52% and 0.28%
CTL cells (CD45^+CD8^+) Total % [2, 6]: 20.93% and 12.12% and 21.14% and 45.53% and 36.08%
PD-1^+ CTL cells (CD45^+CD8^+ PD-1^+) Total % [2, 6]: 21.41% and 12.30% and 20.63% and 41.26% and 28.90%
CTL cells (CD45^+CD8^+) CD45^+ Gated % ([2]; TILs, gate CD45^+ cells, individual mice): 49.08% and 66.81% and 72.14% and 74.09% and 57.70%
CD25^+ CTL cells (CD45^+CD8^+ CD25^+) CTL Gated % [2, 7]: 1.27% and 2.48% and 3.64% and 1.13% and 0.78%
PD-1^+ CTL cells (CD45^+CD8^+ PD-1^+) CTL Gated % [2, 7]: 92.13% and 91.25% and 99.25% and 91.79% and 85.06%
CD25^+ CTL cells (CD45^+CD8^+ CD25^+) Cell count ([2]; TILs, individual mice): 0.12 ×10^5 and 0.22 ×10^5 and 0.63 ×10^5 and 0.13 ×10^5 and 0.11 ×10^5
CTL cells (CD45^+CD8^+) Cell count ([2]; TILs, individual mice): 9.13 ×10^5 and 8.93 ×10^5 and 17.29 ×10^5 and 11.11 ×10^5 and 14.65 ×10^5
PD-1^+ CTL cells (CD45^+CD8^+ PD-1^+) Cell count ([2]; TILs, individual mice): 9.33 ×10^5 and 9.07 ×10^5 and 16.88 ×10^5 and 10.07 ×10^5 and 11.73 ×10^5
CD25^+ TH cells (CD45^+CD4^+ CD25^+) Total % ([3]; flow cytometer): 1.06% and 0.68% and 0.82% and 0.52% and 0.53%
PD-1^+ TH cells (CD45^+CD4^+ PD-1^+) Total % ([3]; flow cytometer): 19.45% and 9.29% and 13.77% and 15.00% and 16.75%
TH cells (CD45^+CD4^+) Total % ([3]; flow cytometer): 18.53% and 9.14% and 14.30% and 14.34% and 16.81%
TH cells (CD45^+CD4^+) CD45^+ Gated % ([3]; gate CD45^+ cells): 43.45% and 50.36% and 48.78% and 23.33% and 26.88%
CD25^+ TH cells (CD45^+CD4^+CD25^+) TH Gated % ([3]; gate CD45^+CD4^+ cells): 5.70% and 7.39% and 5.74% and 3.63% and 3.15%
PD-1^+ TH cells (CD45^+CD4^+ PD-1^+) TH Gated % ([3]; gate CD45^+CD4^+ cells): 99.46% and 98.15% and 99.75% and 97.06% and 97.78%
CD25^+ TH cells (CD45^+CD4^+ CD25^+) Cell count [3]: 0.46 ×10^5 and 0.50 ×10^5 and 0.67 ×10^5 and 0.13 ×10^5 and 0.22 ×10^5
PD-1^+ TH cells (CD45^+CD4^+ PD-1^+) Cell count [3]: 8.48 ×10^5 and 6.85 ×10^5 and 11.26 ×10^5 and 3.66 ×10^5 and 6.80 ×10^5
TH cells (CD45^+CD4^+) Cell count [3]: 8.08 ×10^5 and 6.74 ×10^5 and 11.70 ×10^5 and 3.50 ×10^5 and 6.82 ×10^5
CD16^+ NK cells (CD45^+CD56^+ CD16^+) Total % ([4]; flow cytometer): 0.39% and 0.21% (2×) and 0.24% and 0.17%
NK cells (CD45^+CD56^+) Total % ([4]; flow cytometer): 2.47% and 1.62% and 1.15% and 2.73% and 1.39%
PD-1^+ NK cells (CD45^+CD56^+PD-1^+) Total % ([4]; flow cytometer): 3.26% and 1.51% and 1.63% and 2.76% and 2.38%
NK cells (CD45^+CD56^+) CD45^+ Gated % ([4]; gate CD45^+ cells): 6.06% and 9.96% and 4.16% and 5.20% and 2.33%
CD16^+ NK cells (CD45^+CD56^+ CD16^+) NK Gated % ([4]; gate CD45^+CD56^+ cells): 15.62% and 12.65% and 20.43% and 7.71% and 11.87%
PD-1^+ NK cells (CD45^+CD56^+PD-1^+) NK Gated % ([4]; gate CD45^+CD56^+ cells): 88.81% and 88.82% and 97.60% and 90.05% and 83.33%
CD16^+ NK cells (CD45^+CD56^+ CD16^+) Cell count [4]: 0.17 ×10^5 and 0.15 ×10^5 and 0.20 ×10^5 and 0.05 ×10^5 and 0.07 ×10^5
NK cells (CD45^+CD56^+) Cell count [4]: 1.08 ×10^5 and 1.19 ×10^5 and 0.94 ×10^5 and 0.67 ×10^5 and 0.56 ×10^5
PD-1^+ NK cells (CD45^+CD56^+PD-1^+) Cell count [4]: 1.42 ×10^5 and 1.11 ×10^5 and 1.33 ×10^5 and 0.67 ×10^5 and 0.97 ×10^5
CD45^+ cells Cell count (×10^6) [5]: 1.86 ×10^6 and 1.34 ×10^6 and 2.40 ×10^6 and 1.50 ×10^6 and 2.54 ×10^6
CD45^+ cells Gated % [5]: 58.88% and 28.16% and 40.69% and 79.75% and 79.11%
CD45^+ cells Total % [5]: 42.64% and 18.14% and 29.31% and 61.46% and 62.53%
Total PD-L1^+ cells (PD-L1^+) Cell count (×10^5) [5]: 2.17 ×10^5 and 14.22 ×10^5 and 4.16 ×10^5 and 0.26 ×10^5 and 0.25 ×10^5
Total PD-L1^+ cells (PD-L1^+), Total % [5]: 4.97% and 19.30% and 5.09% and 1.08% and 0.62%
Total PD-L1^+ cells (PD-L1^+), Total cells Gated % [5]: 5.67% and 24.15% and 6.02% and 1.15% and 0.65%
Total cells Cell count (×10^6) [5]: 3.82 ×10^6 and 5.89 ×10^6 and 6.92 ×10^6 and 2.30 ×10^6 and 3.83 ×10^6
Total cells Gated % [5]: 87.63% and 79.89% and 84.57% and 94.06% and 94.44%
Total cells Total % [5]: 87.63% and 79.89% and 84.57% and 94.06% and 94.44%
